Among the data in patent US10526336B2, “Fused heteroaryl derivatives as orexin receptor antagonists” (Merck Sharp & Dohme Corp., priority 2014, dated 2020) are IC50 values, retold here.

For this test, the target named is human orexin-2 receptor (Homo sapiens (Human), UniProt O43614). The experiment in a line: FLIPR Ca2+ Flux Assay, orexin-2 receptor antagonism in CHO cells. It counts as cell-based. The following applies: CHO cells expressing the human orexin-2 receptor; agonist 70 pM Ala-6,12 orexin-A; read-out: hOX2 FLIPR IC50. As for the experimental part:
The utility of the compounds in accordance with the present invention as orexin receptor OX1R and/or OX2R antagonists may be readily determined without undue experimentation by methodology well known in the art, including the “FLIPR Ca^2+ Flux Assay” (Okumura et al., Biochem. Biophys. Res. Comm. 280:976-981, 2001). In a typical experiment the OX1 and OX2 receptor antagonistic activity of the compounds of the present invention was determined in accordance with the following experimental method. For intracellular calcium measurements, Chinese hamster ovary (CHO) cells expressing the rat orexin-1 receptor or the human orexin-2 receptor, are grown in Iscove's modified DMEM containing 2 mM L-glutamine, […], 1% hypoxanthine-thymidine supplement, 100 U/ml penicillin, 100 μg/ml streptomycin and 10% heat-inactivated fetal calf serum (FCS). The cells are seeded at 20,000 cells/well into Becton-Dickinson black 384-well clear bottom sterile plates coated with poly-D-lysine. All reagents are from GIBCO-Invitrogen Corp. The seeded plates are incubated overnight at 37° C. and 5% CO2. Ala-6,12 human orexin-A as the agonist is prepared as a 1 mM stock solution in 1% bovine serum albumin (BSA) and diluted in assay buffer (HBSS containing 20 mM HEPES, 0.1% BSA and 2.5 mM probenecid, pH7.4) for use in the assay at a final concentration of 70 pM. Test compounds are prepared as 10 mM stock solution in DMSO, then diluted in 384-well plates, first in DMSO, then assay buffer. On the day of the assay, cells are washed 3 times with 100 μl assay buffer and then incubated for 60 min (37° C., 5% CO2) in 60 μl assay buffer containing […] Fluo-4AM ester, 0.02% pluronic acid, and 1% BSA. The dye loading solution is then aspirated and cells are washed 3 times with 100 μl assay buffer. 30 μl of that same buffer is left in each well. Within the Fluorescent Imaging Plate Reader (FLIPR, Molecular Devices), test compounds are added to the plate in a volume of 25 μl, incubated for 5 min and finally 25 μl of agonist is added. Fluorescence is measured for each well at 1 second intervals for 5 minutes and the height of each fluorescence peak is compared to the height of the fluorescence peak induced by 70 pM Ala-6,12 orexin-A with buffer in place of antagonist. For each antagonist, IC50 value (the concentration of compound needed to inhibit 50% of the agonist response) is determined. Alternatively, compound potency can be assessed by a radioligand binding assay (described in Bergman et. al. Bioorg. Med. Chem. Lett. 2008, 18, 1425-1430) in which the inhibition constant (Ki) is determined in membranes prepared from CHO cells expressing either the OX1 or OX2 receptor. The intrinsic orexin receptor antagonist activity of a compound which may be used in the present invention may be determined by these assays.
(Calcium assays in cells follow changes in intracellular calcium, usually with a dye or a luminescent sensor.)

SMILES strings stand for the structures.

human orexin-2 receptor, sequence (O43614 whole entry): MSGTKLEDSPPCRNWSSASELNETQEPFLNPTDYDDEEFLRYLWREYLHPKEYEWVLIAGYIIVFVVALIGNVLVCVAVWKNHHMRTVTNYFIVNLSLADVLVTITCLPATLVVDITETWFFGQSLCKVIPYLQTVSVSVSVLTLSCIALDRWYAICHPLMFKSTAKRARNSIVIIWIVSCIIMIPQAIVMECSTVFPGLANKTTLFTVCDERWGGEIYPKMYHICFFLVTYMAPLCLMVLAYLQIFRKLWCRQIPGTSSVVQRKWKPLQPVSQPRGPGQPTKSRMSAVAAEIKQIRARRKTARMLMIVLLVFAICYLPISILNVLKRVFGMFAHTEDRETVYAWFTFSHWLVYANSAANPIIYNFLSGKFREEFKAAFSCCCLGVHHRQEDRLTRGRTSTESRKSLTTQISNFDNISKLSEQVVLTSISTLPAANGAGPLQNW

For `C[C@@H]1CC[C@@H](Oc2nccn3c(C(F)(F)F)cnc23)CN1C(=O)c1ccccc1CS(C)(=O)=O` [Example 61, ((2R,5R)-2-methyl-5-((3-(trifluoromethyl)imidazo [1,2-α]pyrazin-8-yl)oxy)piperidin-1-yl)(2-((methylsulfonyl)methyl)phenyl)methanone], the IC50 came out at 0.17 µM. With `Cc1cnc2c(O[C@@H]3CC[C@@H](C)N(C(=O)c4ccccc4-n4nccn4)C3)nccn12` [Example 34, (2-(2H-1,2,3-triazol-2-yl)phenyl)((2R,5R)-2-methyl-5-((3-methylimidazo[1,2-a]pyrazin-8-yl)oxy)piperidin-1-yl)methanone], the IC50 came to 0.0163 µM.

For `C[C@@H]1CC[C@@H](Oc2nccn3c(C(F)F)cnc23)CN1C(=O)c1ncccc1-c1ccccc1` [Example 49, ((2R,5R)-5-((3-(difluoromethyl)imidazo[1,2-α]pyrazin-8-yl)oxy)-2-methylpiperidin-1-yl)(3-phenylpyridin-2-yl)methanone], the IC50 came out at 0.0518 µM.

Consider `C[C@@H]1CC[C@@H](Nc2nccn3cc(C(F)(F)F)nc23)CN1C(=O)c1ccccc1-n1nccn1` [Example 22, (2-(2H-1,2,3-triazol-2-yl)phenyl)((2R,5R)-2-methyl-5-((2-(trifluoromethyl)imidazo[1,2-a]pyrazin-8-yl)amino)piperidin-1-yl)methanone], for which the half-inhibitory concentration (IC50) was 0.0454 µM.

In the case of `Cc1cn2ccnc(O[C@@H]3CC[C@@H](C)N(C(=O)c4ccccc4-n4nccn4)C3)c2n1` [Example 6, (2-(2H-1,2,3-triazol-2-yl)phenyl)((2R,5R)-2-methyl-5-((2-methylimidazo[1,2-a]pyrazin-8-yl)oxy)piperidin-1-yl)methanone], the half-maximal inhibitory concentration (IC50) was determined as 0.008 µM. Regarding `CCc1cnc2c(O[C@@H]3CC[C@@H](C)N(C(=O)c4ccccc4-n4nccn4)C3)nccn12` [Example 37, (2-(2H-1,2,3-triazol-2-yl)phenyl)((2R,5R)-5-((3-ethylimidazo[1,2-a]pyrazin-8-yl)oxy)-2-methylpiperidin-1-yl)methanone], the half-inhibitory concentration (IC50) amounted to 0.0292 µM. Turning to `C[C@@H]1CC[C@@H](Oc2nccn3ccnc23)CN1C(=O)c1ccccc1CC(F)(F)F` [Example 3, ((2R,5R)-5-(imidazo[1,2-α]pyrazin-8-yloxy)-2-methylpiperidin-1-yl)(2-(2,2,2-trifluoroethyl)phenyl)methanone], the IC50 stood at 0.0504 µM. As to `C[C@@H]1CC[C@@H](Oc2nccn3nccc23)CN1C(=O)c1ccsc1-n1nccn1` [Example 70, (2-(2H-1,2,3-triazol-2-yl)thiophen-3-yl)((2R,5R)-2-methyl-5-(pyrazolo[1,5-a]pyrazin-4-yloxy)piperidin-1-yl)methanone], the IC50 worked out at 0.0098 µM. Take `C[C@@H]1CC[C@@H](Oc2nccn3nccc23)CN1C(=O)c1ccc(F)cc1-n1nccn1` [Example 73, (4-fluoro-2-(2H-1,2,3-triazol-2-yl)phenyl)((2R,5R)-2-methyl-5-(pyrazolo[1,5-α]pyrazin-4-yloxy)piperidin-1-yl)methanone]: the IC50 was determined as 0.014 µM. Turning to `C[C@@H]1CC[C@@H](Oc2nccn3c(Cl)cnc23)CN1C(=O)c1ccccc1C1(C#N)CC1` [Example 28, 1-(2-((2R,5R)-5-((3-chloroimidazo[1,2-α]pyrazin-8-yl)oxy)-2-methylpiperidine-1-carbonyl)phenyl) cyclopropanecarbonitrile], the IC50 was 0.0095 µM. On to `C[C@@H]1CC[C@@H](Oc2nccn3nccc23)CN1C(=O)c1cscc1-n1nccn1` [Example 71, (4-(2H-1,2,3-triazol-2-yl)thiophen-3-yl)((2R,5R)-2-methyl-5-(pyrazolo[1,5-α]pyrazin-4-yloxy)piperidin-1-yl)methanone], for which the IC50 was 0.016 µM. Regarding `C[C@@H]1CC[C@@H](Oc2nccn3c(C(F)F)cnc23)CN1C(=O)c1ccc(F)cc1-n1nccn1` [Example 43, ((2R,5R)-5-((3-(difluoromethyl)imidazo[1,2-α]pyrazin-8-yl)oxy)-2-methylpiperidin-1-yl)(4-fluoro-2-(2H-1,2,3-triazol-2-yl)phenyl)methanone], the IC50 stood at 0.0157 µM. For `Cc1cn2ccnc(O[C@@H]3CC[C@@H](C)N(C(=O)c4cccnc4-n4cccn4)C3)c2n1` [Example 18, (2-(1H-pyrazol-1-yl)pyridin-3-yl) ((2R,5R)-2-methyl-5-((2-methylimidazo[1,2-α]pyrazin-8-yl)oxy)piperidin-1-yl)methanone], the IC50 came to 0.0587 µM. Regarding `C[C@@H]1CC[C@@H](Oc2nccn3c(C(F)F)cnc23)CN1C(=O)c1ccccc1-c1cnccn1` [Example 53, ((2R,5R)-5-((3-(difluoromethyl)imidazo[1,2-α]pyrazin-8-yl)oxy)-2-methylpiperidin-1-yl)(2-(pyrazin-2-yl)phenyl)methanone], the 50% inhibitory concentration (IC50) is 0.0213 µM. Regarding `C[C@@H]1CC[C@@H](Nc2nccn3c(Cl)cnc23)CN1C(=O)c1ccccc1-c1ncccn1` [Example 31, ((2R,5R)-5-((3-chloroimidazo[1,2-a]pyrazin-8-yl)amino)-2-methylpiperidin-1-yl)(2-(pyrimidin-2-yl)phenyl)methanone], the IC50 was 0.0237 µM. `CC(O)c1cnc2c(O[C@@H]3CC[C@@H](C)N(C(=O)c4ccccc4-n4nccn4)C3)nccn12` (stereo partly drawn) [Example 68, (2-(2H-1,2,3-triazol-2-yl)phenyl)((2R,5R)-5-((3-(1-hydroxyethyl)imidazo[1,2-a]pyrazin-8-yl)oxy)-2-methylpiperidin-1-yl)methanone]: the IC50 was 0.115 µM.

Consider `C[C@@H]1CC[C@@H](Oc2nccn3ncc(Br)c23)CN1C(=O)c1ccccc1-n1nccn1` [Example 88, (2-(2H-1,2,3-triazol-2-yl)phenyl)((2R,5R)-5-((3-bromopyrazolo[1,5-a]pyrazin-4-yl)oxy)-2-methylpiperidin-1-yl)methanone], for which the IC50 was 0.0073 µM. As for `C[C@@H]1CC[C@@H](Oc2cccn3c(=O)n(C)nc23)CN1C(=O)c1ccccc1-n1nccn1` [Example 106, 8-(((3R,6R)-1-(2-(2H-1,2,3-triazol-2-yl)benzoyl)-6-methylpiperidin-3-yl)oxy)-2-methyl-[1,2,4]triazolo[4,3-a]pyridin-3(2H)-one], the concentration for half-maximal inhibition (IC50) was found to be 0.178 µM.

On to `C[C@@H]1CC[C@@H](Nc2nccn3nccc23)CN1C(=O)c1ccccc1-n1nccn1` [Example 86, (2-(2H-1,2,3-triazol-2-yl)phenyl)((2R,5R)-2-methyl-5-(pyrazolo[1,5-a]pyrazin-4-ylamino)piperidin-1-yl)methanone], for which the half-maximal inhibitory concentration (IC50) worked out at 0.0205 µM.

Turning to `C[C@@H]1CC[C@@H](Oc2nccn3c(C(F)F)cnc23)CN1C(=O)c1ccsc1-c1ncccn1` [Example 56, ((2R,5R)-5-((3 (difluoromethyl)imidazo [1,2-α]pyrazin-8-yl)oxy)-2-methylpiperidin-1-yl)(2-(pyrimidin-2-yl)thiophen-3-yl)methanone], the concentration for half-maximal inhibition (IC50) is 0.0537 µM.

In the case of `COC(=O)c1ccccc1C(=O)N1C[C@H](Oc2nccn3nccc23)CC[C@H]1C` [Example 79, methyl 2-((2R,5R)-2-methyl-5-(pyrazolo[1,5-α]pyrazin-4-yloxy)piperidine-1-carbonyl)benzoate], the IC50 was 0.0442 µM. Consider `Cc1cn2ccnc(O[C@@H]3CC[C@@H](C)N(C(=O)c4ccsc4-c4ncccn4)C3)c2n1` [Example 14, ((2R,5R)-2-methyl-5-((2-methylimidazo[1,2-α]pyrazin-8-yl)oxy)piperidin-1-yl) (2-(pyrimidin-2-yl)thiophen-3-yl)methanone], for which the IC50 amounted to 0.0368 µM.

What is called IC50 is the concentration needed to halve the response being measured.
